Several values for one entry are separate records, joined by “and”; a condition that tells them apart may be missing. Equal entries are not always repeated. Where a SMILES comes first, the peptide text is derived from it. [ ]: non-standard residue; d: D form. Hyp = O=C(O)[C@@H]1C[C@@H](O)CN1
Test system: IL-1 beta/IL-1F2
Test: Example 8 main study Luminex, LPS hPBMCs: IL-1 beta/IL-1F2
Type: cell-based, human
Method: Human PBMCs were pretreated with YY-101, YDE-011, YDE-043 or reference compound; Xiidra® at various concentration (ranging from […] to 500 nM) for 2 h before stimulation. An equal volume of 0.5% DMSO was used as a vehicle control. Then, the cells were treated with LPS at 5 ug/ml, which was selected based on the pilot study. The supernatants from treated cells were harvested at 24 h and placed in a 96 well for Luminex cytokine & chemokine profiling using a Luminex 200 multiplex assay (Luminex; R&D system, USA).
The main study arm with triplicate wells per group in a 24-well plate: • 1. Blank • 2. PBMC: 0.5% DMSO • 3. PBMC+LPS (5 ug/ml) • 4. PBMC+YY-101 500 nM • 5. PBMC+YY-101 50 nM • 6. PBMC+YY-101 5 nM • 7. PBMC+YY-101 0.5 nM • 8. PBMC+LPS (5 ug/ml)+Xiidra® 500 nM • 9. PBMC+LPS (5 ug/ml)+Xiidra® 50 nM • 10. PBMC+LPS (5 ug/ml)+Xiidra® 5 nM • 11. PBMC+LPS (5 ug/ml)+Xiidra® 0.5 nM • 12. PBMC+LPS (5 ug/ml)+Xiidra® 0.05 nM • 13. PBMC+LPS (5 ug/ml)+Xiidra® 0.005 nM • 14. PBMC+LPS (5 ug/ml)+YY-101 500 nM • 15. PBMC+LPS (5 ug/ml)+YY-101 50 nM • 16. PBMC+LPS (5 ug/ml)+YY-101 5 nM • 17. PBMC+LPS (5 ug/ml)+YY-101 0.5 nM • 18. PBMC+LPS (5 ug/ml)+YY-101 0.05 nM • 19. PBMC+LPS (5 ug/ml)+YY-101 0.005 nM • 20. PBMC+LPS (5 ug/ml)+YDE-011 500 nM • 21. PBMC+LPS (5 ug/ml)+YDE-011 50 nM • 22. PBMC+LPS (5 ug/ml)+YDE-011 5 nM • 23. PBMC+LPS (5 ug/ml)+YDE-011 0.5 nM • 24. PBMC+LPS (5 ug/ml)+YDE-011 0.05 nM • 25. PBMC+LPS (5 ug/ml)+YDE-011 0.005 nM • 26. PBMC+LPS (5 ug/ml)+YDE-043 500 nM • 27. PBMC+LPS (5 ug/ml)+YDE-043 50 nM • 28. PBMC+LPS (5 ug/ml)+YDE-043 5 nM • 29. PBMC+LPS (5 ug/ml)+YDE-043 0.5 nM • 30. PBMC+LPS (5 ug/ml)+YDE-043 0.05 nM • 31. PBMC+LPS (5 ug/ml)+YDE-043 0.005 nM
Multiplex assay was used to measure 30 cytokines and chemokines. The 1:200 diluted cell supernatant and serial dilution of the standard were dispensed into a 96 well plate at 50 ul/well. Then, the pre-mixed cocktail of antibody-coated magnetic beads was dispensed at 50 ul/well and incubated at room temperature for 2 h in a horizontal orbital microplate shaker at 800±500 rpm. The beads were washed using a magnetic device to prevent loss. The biotin-antibody was dispensed in 50 ul of each well and incubated at room temperature for 1 h in a shaker at 800±500 rpm. After washing, streptavidin-PE was added at 50 ul/well and incubated at room temperature for 30 min in a shaker under the same conditions. Finally, after washing, wash buffer (100 ul/well) was added to the plate and incubated in a shaker for 2 min. The Luminex™ 200 setting were set according to the manufacturer's protocol. The data was calculated with a standard five-parameter logistic nonlinear regression analysis of the data (xPonent software 4.2, USA). Results were presented as concentration (ng/ml or pg/ml).

[1] = PBMC + LPS(5 ug/ml) + test article 0.005 nM, Mean
[2] = PBMC + LPS(5 ug/ml) + test article 0.005 nM, individual replicates
[3] = PBMC + LPS(5 ug/ml) + test article 0.05 nM, Mean
[4] = PBMC + LPS(5 ug/ml) + test article 0.05 nM, individual replicates
[5] = PBMC + LPS(5 ug/ml) + test article 0.5 nM, Mean
[6] = PBMC + LPS(5 ug/ml) + test article 0.5 nM, individual replicates
[7] = PBMC + LPS(5 ug/ml) + test article 5 nM, Mean
[8] = PBMC + LPS(5 ug/ml) + test article 5 nM, individual replicates
[9] = PBMC + LPS(5 ug/ml) + test article 50 nM, Mean
[10] = PBMC + LPS(5 ug/ml) + test article 50 nM, individual replicates
[11] = PBMC + LPS(5 ug/ml) + test article 500 nM, Mean
[12] = PBMC + LPS(5 ug/ml) + test article 500 nM, individual replicates

Structure (SMILES)	IL-1 beta/IL-1F2 Concentration [1] [pg/mL]	IL-1 beta/IL-1F2 MFI [1]	IL-1 beta/IL-1F2 Concentration [2]	IL-1 beta/IL-1F2 MFI [2]	IL-1 beta/IL-1F2 Concentration [3] [pg/mL]	IL-1 beta/IL-1F2 MFI [3]	IL-1 beta/IL-1F2 Concentration [4]	IL-1 beta/IL-1F2 MFI [4]	IL-1 beta/IL-1F2 Concentration [5] [pg/mL]	IL-1 beta/IL-1F2 MFI [5]	IL-1 beta/IL-1F2 Concentration [6]	IL-1 beta/IL-1F2 MFI [6]	IL-1 beta/IL-1F2 Concentration [7] [pg/mL]	IL-1 beta/IL-1F2 MFI [7]	IL-1 beta/IL-1F2 Concentration [8]	IL-1 beta/IL-1F2 MFI [8]	IL-1 beta/IL-1F2 Concentration [9] [pg/mL]	IL-1 beta/IL-1F2 MFI [9]	IL-1 beta/IL-1F2 Concentration [10]	IL-1 beta/IL-1F2 MFI [10]	other results
CC(C)C[C@H](NC(=O)CNC(=O)[C@H](CC(C)C)NC(=O)[C@H](CCC(N)=O)NC(=O)CNC(=O)[C@@H]1C[C@@H](O)CN1)C(=O)N[C@@H](C)C(=O)NCC(=O)N1CCC[C@H]1C(=O)N[C@@H](CCCCN)C(=O)O [YDE-011] (H-[Hyp]GQLGLAGPK-OH)	5171.7	94.5	5350.1 pg/mL and 5023.0 pg/mL and 5141.9 pg/mL	97.5 and 92.0 and 94.0	5836.1	105.7	5796.4 pg/mL and 6094.1 pg/mL and 5617.8 pg/mL	105.0 and 110.0 and 102.0	4864.5	89.3	4844.7 pg/mL and 4963.6 pg/mL and 4785.3 pg/mL	89.0 and 91.0 and 88.0	4350.3	80.7	3539.2 pg/mL and 4250.8 pg/mL and 5260.9 pg/mL	67.0 and 79.0 and 96.0	4786.7	88.0	5558.3 pg/mL and 5617.8 pg/mL and 3183.9 pg/mL	101.0 and 102.0 and 61.0	IL-1 beta/IL-1F2 Concentration [11]: 4262.6 pg/mL; IL-1 beta/IL-1F2 MFI [11]: 79.2; IL-1 beta/IL-1F2 Concentration [12]: 5796.4 pg/mL and 2681.1 pg/mL and 4310.2 pg/mL; IL-1 beta/IL-1F2 MFI [12]: 105.0 and 52.5 and 80.0
CC(C)C[C@H](NC(=O)[C@H](CCC(N)=O)NC(=O)CNC(=O)[C@@H]1C[C@@H](O)CN1)C(=O)NCC(=O)O [YDE-043] (H-[Hyp]GQLG-OH; N-terminus and C-terminus assumed)	5499.4	100.0	4547.7 pg/mL and 5320.3 pg/mL and 6630.3 pg/mL	84.0 and 97.0 and 119.0	4458.6	82.5	4488.3 pg/mL and 4428.9 pg/mL and 4458.6 pg/mL	83.0 and 82.0 and 82.5	4725.9	87.0	4963.6 pg/mL and 4785.3 pg/mL and 4428.9 pg/mL	91.0 and 88.0 and 82.0	5379.8	98.0	5379.8 pg/mL and 5558.3 pg/mL and 5201.4 pg/mL	98.0 and 101.0 and 95.0	5280.8	96.3	5588.1 pg/mL and 5469.1 pg/mL and 4785.3 pg/mL	101.5 and 99.5 and 88.0	LPS-induced IL-1b levels (in words) (LPS 5 ug/mL 24 hrs): significantly lowered; IL-1 beta/IL-1F2 Concentration [11]: 4508.2 pg/mL; IL-1 beta/IL-1F2 MFI [11]: 83.3; IL-1 beta/IL-1F2 Concentration [12]: 4428.9 pg/mL and 4191.5 pg/mL and 4904.1 pg/mL; IL-1 beta/IL-1F2 MFI [12]: 82.0 and 78.0 and 90.0
